Reference: ChEMBL document CHEMBL1201862, “PubChem BioAssay data set” (2004)
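Protocol summary: plate cells (96-well), add compound at 5 concentrations, incubate 48 h, interpolate endpoints linearly. GI50 is the concentration that inhibits growth by half.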 Calls of active or inactive are those of the source. Cut-off read from the data, not from the text of the source: active = GI50 up to about 1.1 µM and inactive = higher.

Key:
Assay in all cases: NCI tumour cell line growth inhibition, 48 h
[1] = tested on: RPMI-8226
[2] = tested on: HCT-15
[3] = tested on: MCF7
[4] = tested on: KM12
[5] = tested on: OVCAR-4
[6] = tested on: HCC 2998
[7] = tested on: HL-60
[8] = tested on: A498
[9] = tested on: SK-OV-3
[10] = tested on: CAKI-1
[11] = tested on: BT-549
[12] = tested on: K562
[13] = tested on: M14
[14] = tested on: SK-MEL-5
[15] = tested on: NCI-H522
[16] = tested on: RXF 393
[17] = tested on: PC-3
[18] = tested on: Hs-578T
[19] = tested on: UO-31
[20] = tested on: 786-0

Row | SMILES | GI50 [1] | GI50 [2] [µM] | GI50 [3] | GI50 [4] | GI50 [5] | GI50 [6] | GI50 [7] | GI50 [8] | GI50 [9] | GI50 [10] | GI50 [11] | GI50 [12] | GI50 [13] | GI50 [14] | GI50 [15] | GI50 [16] | GI50 [17] | GI50 [18] | GI50 [19] | GI50 [20]
1 | COC1(C)CCC(OS(C)(=O)=O)CO1 (stereo not given) | > 100 µM (inactive) | > 100 | > 100 µM (inactive) | > 100 µM (inactive) | > 100 µM (inactive) | > 100 µM (inactive) | > 100 µM (inactive) | > 100 µM (inactive) | > 100 µM (inactive) | > 100 µM (inactive) | > 100 µM (inactive) | > 100 µM (inactive) | > 100 µM (inactive) | > 100 µM (inactive) | > 100 µM (inactive) | > 100 µM (inactive) | > 100 µM (inactive) | > 100 µM (inactive) | > 100 µM (inactive) | > 100 µM (inactive)
2 | COc1cc2c(cc1OC)[C@H]1C(=O)c3cc4c(cc3[C@H]1N(C)C2=O)OCO4 | 4.34 µM (inactive) | 14.7 | 2.4 µM (inactive) | 36.6 µM (inactive) | > 100 µM (inactive) | 37.6 µM (inactive) | 1.77 µM (inactive) | 8.43 µM (inactive) | 6.7 µM (inactive) | 3.13 µM (inactive) | > 49.4 µM (inactive) | 0.869 µM (active) | 2.92 µM (inactive) | 1.96 µM (inactive) | 1.06 µM (active) | 21.8 µM (inactive) | 9.04 µM (inactive) | > 94.6 µM (inactive) | 1.42 µM (inactive) | 4.41 µM (inactive)
3 | C[N+](C)=C/C=C(\Cl)c1ccc2ccccc2c1 | 2.89 µM (inactive) | 2.62 | 19 µM (inactive) | 15 µM (inactive) | 3.82 µM (inactive) | 6.37 µM (inactive) | 6.52 µM (inactive) | > 63 µM (inactive) | 18 µM (inactive) | 11.9 µM (inactive) | 17.7 µM (inactive) | 5.04 µM (inactive) | 6.62 µM (inactive) | 18.1 µM (inactive) | 21.4 µM (inactive) | 16.5 µM (inactive) | 19.8 µM (inactive) | 32.4 µM (inactive) | 17 µM (inactive) | 13.1 µM (inactive)
4 | CC1OC(O[C@H]2CC[C@]3(C=O)[C@H]4CC[C@]5(C)[C@H](C6=CC(=O)OC6)CC[C@]5(O)[C@@H]4C=C[C@]3(O)C2)CC(O)C1O (stereo not given in full) | 0.136 µM (active) | 0.289 | 0.272 µM (active) | 0.676 µM (active) | 0.349 µM (active) | 0.836 µM (active) | 0.196 µM (active) | 0.176 µM (active) | 0.502 µM (active) | 0.103 µM (active) | 0.224 µM (active) | 0.294 µM (active) | 0.386 µM (active) | 0.0991 µM (active) | 0.0615 µM (active) | 0.0661 µM (active) | 0.306 µM (active) | 0.239 µM (active) | 0.214 µM (active) | 0.0871 µM (active)
5 | O=C1c2ccccc2CC12Cc1ccc3c(c1C2)CCC3 (stereo not given) | 19 µM (inactive) | 14.6 | 16.9 µM (inactive) | 24.4 µM (inactive) | 22.2 µM (inactive) | 24.3 µM (inactive) | 12.6 µM (inactive) | 85.3 µM (inactive) | 33.3 µM (inactive) | 26.8 µM (inactive) | 35.8 µM (inactive) | 22.3 µM (inactive) | 19.1 µM (inactive) | 15.5 µM (inactive) | 4.54 µM (inactive) | 16.4 µM (inactive) | 26 µM (inactive) | 21 µM (inactive) | 23.4 µM (inactive) | 20.6 µM (inactive)
6 | Cc1cc2c3ccccc3n(C)c2c2c1C(=O)C=CC2=O | 1.58 µM (inactive) | 9.33 | 4.3 µM (inactive) | 17 µM (inactive) | 7.29 µM (inactive) | 20.2 µM (inactive) | 5.24 µM (inactive) | 17.8 µM (inactive) | 21.1 µM (inactive) | 14.3 µM (inactive) | 13.9 µM (inactive) | 5.33 µM (inactive) | 17.8 µM (inactive) | 27.4 µM (inactive) | 16.1 µM (inactive) | 6.64 µM (inactive) | 9.91 µM (inactive) | 22.3 µM (inactive) | 21.8 µM (inactive) | 5.78 µM (inactive)
7 | COc1ccc(N2C(=O)[C@H]3[C@H]4CC(C(C)(C)C)CC[C@H]4c4c(n(C)c5ccccc45)[C@H]3C2=O)cc1 (stereo not given in full) | > 100 µM (inactive) | 5.62 | > 46.5 µM (inactive) | > 10 µM (inactive) | > 79.6 µM (inactive) | 5.62 µM (inactive) | > 90.6 µM (inactive) | > 46.5 µM (inactive) | > 100 µM (inactive) | > 100 µM (inactive) | > 100 µM (inactive) | > 95.3 µM (inactive) | > 100 µM (inactive) | 4.65 µM (inactive) | > 10 µM (inactive) | > 23.7 µM (inactive) | > 100 µM (inactive) | 56.1 µM (inactive) | > 100 µM (inactive) | > 100 µM (inactive)
